How the values were obtained:
[1] = target: T1, Monoglyceride lipase (Homo sapiens, UniProt Q99685); assay: Inhibition of human recombinant MAGL using 4-nitrophenylacetate as substrate
T1 sequence (Q99685 whole entry): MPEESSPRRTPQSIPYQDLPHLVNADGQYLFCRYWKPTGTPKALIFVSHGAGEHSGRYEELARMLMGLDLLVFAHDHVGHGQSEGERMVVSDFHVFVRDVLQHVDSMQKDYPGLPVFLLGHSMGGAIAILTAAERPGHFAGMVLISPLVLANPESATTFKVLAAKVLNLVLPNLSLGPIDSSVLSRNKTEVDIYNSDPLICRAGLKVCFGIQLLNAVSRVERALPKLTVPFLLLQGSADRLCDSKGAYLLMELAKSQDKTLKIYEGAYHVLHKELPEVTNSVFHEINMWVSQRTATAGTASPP

[2] = Cytotoxicity against human OVCAR3 cells assessed as growth inhibition after 96 hrs; settings: OVCAR-3, 96 h
[3] = test system: MCF7; assay: Cytotoxicity against human MCF7 cells assessed as growth inhibition after 96 hrs; settings: MCF7, 96 h
[4] = target: T1, Monoglyceride lipase; assay: Inhibition of human recombinant MAGL using 4-nitrophenylacetate as substrate preincubated for 30 mins followed by substrate addition
[5] = target: T1, Monoglyceride lipase; assay: Inhibition of human recombinant MAGL using 4-nitrophenylacetate as substrate preincubated for 60 mins followed by substrate addition
[6] = Cytotoxicity against human MSC assessed as growth inhibition after 96 hrs
[7] = Cytotoxicity against human COV318 cells assessed as growth inhibition after 96 hrs; settings: COV318, 96 h
[8] = test system: MDA-MB-231; assay: Cytotoxicity against human MDA-MB-231 cells assessed as growth inhibition after 96 hrs; settings: MDA-MB-231, 96 h
[9] = target: T1, Monoglyceride lipase; assay: Inhibition of human recombinant MAGL using 4-nitrophenylacetate as substrate after 30 mins

Compound: COc1nn(-c2ccc(NC(=O)OCc3ccccc3)c(C)c2)c(=O)o1
- IC50 [1]: 0.146 µM
- IC50 [2]: > 79.8 µM
- IC50 [3]: 4.2 µM
- IC50 [4]: 0.026 µM
- IC50 [5]: 0.009 µM
- IC50 [6]: 276 µM
- IC50 [7]: 107 µM
- IC50 [8]: 46 µM

Compound: O=C(c1ccc([N+](=O)[O-])cc1)c1ccc2c(c1)C(=O)N(c1cccnc1)C2=O
- IC50 [9]: > 500 µM

Compound: COc1ccc(CNC(=O)c2ccc3nc(-c4ccoc4)c(-c4ccoc4)nc3c2)cc1
- IC50 [9]: > 500 µM

Compound: O=C(Cn1nnc(-c2ccc(N3CCOCC3)cc2)n1)N1CCN(c2ccccc2)CC1
- IC50 [9]: > 500 µM

Compound: COc1ccc(C(=O)N2CCC(C(=O)c3ccc(Cl)cc3)CC2)cc1
- IC50 [2]: 50.7 µM
- IC50 [3]: 19.9 µM
- IC50 [6]: > 300 µM
- IC50 [7]: 73.9 µM
- IC50 [8]: 75.3 µM

Compound: O=C(Cc1ccccc1)N1CCC(C(=O)N2CCN(c3ccc(F)cc3)CC2)CC1
- IC50 [9]: > 500 µM

Compound: CCOc1ccc(N2CC(C(=O)Nc3ccc(C(C)=O)cc3)CC2=O)cc1 (stereo not given)
- IC50 [9]: > 500 µM

Compound: COc1ccc(-c2nnn(CC(=O)N3CCN(c4ccc(F)cc4)CC3)n2)cc1
- IC50 [9]: > 500 µM

Compound: COc1ccc(-c2nnc(SCC(=O)N3CCN(c4ccc(OC)cc4)CC3)o2)cc1
- IC50 [9]: > 500 µM
